Experiments:
[1] = tested on: C. elegans wild-type Bristol N2; assay: Lifespan of wild-type C. elegans; type: in vivo; settings: for Mean Life Extension (%): Genotype: N2, fed live E. coli (OP50); for median lifespan increased by: FIG. 5; for Lifespan extension compared to control (%): 50 μM UA vs 1% DMSO
Experimental: C. elegans strains were cultured at 20° C. on nematode growth media (NGM) agar plates seeded with E. coli strain OP50. Strain used was wild-type Bristol N2 provided by the Caenorhabditis Genetics Center (University of Minnesota). All Compounds were dissolved in DMSO. Animals were exposed to compounds from eggs on plates seeded with live OP50 bacteria. Control plates were prepared with the corresponding concentrations of DMSO (0.1%). For lifespan tests, worms were observed using a Nikon SMZ1500 stereomicroscope (Nikon, Melville, NY, USA). […] After 3 days (corresponding to day 0), newly developed 60 to 100 L4 worms were used per condition, scored and transferred to fresh plates every 3 days starting from day 1 (young adult worms). All lifespan experiments were performed at 20° C.
(§1) Lifespan assays were performed with (A) wild-type (N2), (B) sir-2.1(ok434) mutant, (C) aak-2(ok524), (D) daf-16(mu86), (E) eat-2(ad465) and (F) daf-2(e1370) mutant strains of C. elegans maintained during their full life on plates supplemented with either 50 μM of urolithin A or with a control treatment and seeded with OP50 bacteria. Control plates without urolithin A contained an equivalent concentration of DMSO. Worm lifespan assays were performed at 20° C.

[2] = tested on: eat-2(ad465) mutant C. elegans; assay: Lifespan assay, eat-2 mutant C. elegans; type: in vivo
Experimental: as §1
eat-2 encodes a protein involved in pharyngeal pumping.

[3] = tested on: C. elegans wild-type Bristol N2; assay: Oxygen consumption (Seahorse XF24) in aged C. elegans; type: in vivo
Experimental: C. elegans strains were cultured at 20° C. on nematode growth media (NGM) agar plates seeded with E. coli strain OP50. Strain used was wild-type Bristol N2 provided by the Caenorhabditis Genetics Center (University of Minnesota). Urolithin A was dissolved in DMSO. Animals were exposed to compounds from eggs on plates seeded with live OP50 bacteria. Control plates were prepared with the corresponding concentration of DMSO (0.1%).
The effect of urolithin A on mitochondrial activity in aged C. elegans (10 days old) was assessed by treating C. elegans with urolithin A for 10 days of adulthood, at which time oxygen consumption was measured using the Seahorse XF24 equipment (Seahorse Bioscience Inc., North Billerica, MA). […] Worms were transferred into 24-well standard Seahorse plates (#100777-004) (50 worms per well) and oxygen consumption was measured. The basal oxygen consumption of the worms was first measured over 30 minutes at 5-minute intervals (0 min, 5 min, 15 min, 20 min, 25 min, and 30 min) with 5 replicates per interval. Respiration rates were normalized to the exact number of worms per well determined after the completion of the experiment using a stereomicroscope. […] Uncoupled oxygen consumption was measured at 5-minute intervals (35 min, 40 min, 45 min, 50 min, 55 min, and 60 min) to permit measuring the mitochondrial function over time.

C. elegans = assay: Pharyngeal pumping in C. elegans; type: in vivo; settings: day 14 (aged worms); 50 μM; FIG. 11
Experimental: To examine the effect of urolithins on muscle function, pharyngeal pumping was examined in C. elegans worms at day 7 and day 14. Worms were observed using a Nikon SMZ1500 stereomicroscope (Nikon, Melville, NY, USA). Ten L4 worms were transferred on plates containing NGM medium with vehicle (DMSO 0.1%, final concentration) or the compound of interest (urolithin A (UA), urolithin B (UB), urolithin C (UC), urolithin D (UD)) dissolved in DMSO (final concentration 50 μM) and seeded with E. coli RNAi clones as indicated. After 3 days (corresponding to day 0), newly developed 60 to 100 L4 worms were used per condition, scored and transferred to fresh plates every 3 days starting from day 1 (young adult worms). Experiments were performed at 20° C.
The pharyngeal pumping rates at day 7 and 14 were measured for 10 worms by transferring single worms to an unseeded plate and scoring for pharyngeal pumping under a dissecting microscope for 30 seconds. The pharyngeal pumping rates were then computed by extrapolating the pumping made by worms during this 30 second period.

[4] = tested on: C. elegans wild type (N2, Bristol); assay: Mobility tracking of C. elegans during aging; type: in vivo; settings: days 1, 3, 5 and 8 of adulthood; 50 μM; FIG. 12
Experimental: To examine the effect of urolithins on muscle activity during aging, C. elegans mobility was examined over time. Synchronized populations of wild-type nematodes were prepared by standard methods and cultivated at 20° C. on NGM agar containing E. Coli (OP50) with or without test compounds (ellagic acid (EA), urolithins A (UA), and B (UB)). At Day 0, five plates were prepared, each containing 10 young adult worms. Worms were assayed for mobility at different ages, day 1, 3, 5 and 8 of adulthood. The wild type (N2, Bristol) worm strain was employed for these studies.
For C. elegans movement tracking, 45 seconds of video were recorded using a Nikon DS-L2/DS-Fi1 camera and controller setup, attached to both a computer and a standard bright field microscope, tracking an entire plate of 10 worms, with 5 plates per condition. The movement of worms during this time was calculated using an adapted version of the freely-available software Parallel Worm Tracker for MATLAB. The total movement over the 45 second tracking was averaged across all worms for each condition. This experiment was repeated twice with between 40 and 70 worms per condition.

[5] = tested on: primary mouse hepatocytes; assay: Autophagy western blot in primary hepatocytes; type: cell-based; settings: 16 hour
Experimental: Isolated primary hepatocytes were cultured in Medium 199 including 4.5 g/L glucose, 10% fetal calf serum, 0.1 mM NEAA, 10 mM HEPES and 50 μg/mL gentamicin. These cells were then treated with either 10 μM, 20 μM or 50 μM of urolithin A for a 16 hour period, after which cells were lysed and prepared for Western Blot analysis.
Protein expression levels were examined for autophagy related proteins LC3-I and II (Cell Signaling antibody #4108), p62 (Cell Signalling antibody #5114), AMPKα (Cell Signaling antibody #2603), and p-AMPKα(Cell Signaling antibody #2531). The housekeeping protein, HSP90 (BD Transduction Laboratories antibody #610418) level was measured as a loading control.

C57BL/6J mice = assay: Spontaneous running wheel activity in young mice; type: in vivo, mouse; settings: for increase over untreated controls in the cumulative distance covered: 55 mg/kg/day in food, 11 weeks
Experimental: To examine the effect of urolithin A treatment on activity and muscle function in mammals, 10-week-old C57BL/6J mice were treated with either a standard rodent diet or a diet containing urolithin A mixed with food to reach a dosing of 55 mg/kg/day delivered to the mice. Following 11 weeks of treatment with urolithin A, a 23 cm in diameter running wheel was placed in the cage of each mouse. Spontaneous exercise activity was measured over a five day period at 20 min intervals, allowing the capture of the circadian rhythm of the exercise activity.

Question: How did the “Mean Life Extension (%)” value ([1]; dose 10 μM) turn out when `O=c1oc2cc(O)ccc2c2ccc(O)cc12` [Urolithin A, urolithin A] was run?
Answer: The value was 27.7%.

Question: What about the “Mean Life Extension (%)” value ([1]; dose 50 μM) of the same molecule?
Answer: The value was 75%.

Question: What about the “median lifespan increased by” value ([1]; concentration of 50 µM) of the same molecule?
Answer: Its value is 75%.

Question: And the “effect on lifespan in C. elegans” value ([1]; concentration of 50 µM, exposed from eggs, FIG. 4)?
Answer: The value was “extended the lifespan”.

Question: And the “median lifespan increased by” value ([1]; concentration of 10 M)?
Answer: Its value is 27.7%.

Question: What about the “Median lifespan” value ([1]; wild-type (N2), 50 μM UA) of the same molecule?
Answer: Its value is 28 days.

Question: What about the “Lifespan extension compared to control (%)” value (from here on “Lifespan extension … (%)”) ([1]; wild-type (N2)) of the same molecule?
Answer: Its value is 75%.

Question: What about the “Lifespan extension … (%)” value ([1]; wild-type (N2), listed as UA) of the same molecule?
Answer: Its value is “+75%”.

Question: What about the “Median lifespan” value ([2]; 50 μM UA) of the same molecule?
Answer: Its value is 37 days.

Question: What about the “Lifespan extension … (%)” value ([2]; 50 μM UA vs 1% DMSO) of the same molecule?
Answer: Its value is “+76.2%”.

Question: And the “basal respiration, 10-day-old vs 1-day-old worms” value ([3]; 30 μM, FIG. 8D)?
Answer: Its value is “normalizes the respiration rates”.

Question: What about the “uncoupled (FCCP) respiration, area under the curve” value ([3]; 10-day-old worms, 30 μM urolithin A, 30-minute period, FIGS. 8A-8B) of the same molecule?
Answer: The value was “significantly increased uncoupled respiration”.

Question: What about the “pharyngeal pumping (muscle function)” value (C. elegans) of the same molecule?
Answer: The value was “decreases the age related decline in muscle activity”.

Question: What about the “age related mobility decline” value [4] of the same molecule?
Answer: Its value is “marked ability to reduce muscle function decline”.

Question: What about the P62 protein levels ([5]; 10 μM, 20 μM or 50 μM) of the same molecule?
Answer: Its P62 protein levels is “decrease”.

Question: And the “ratio of LC3-II to LC3-I” value ([5]; 10 μM, 20 μM or 50 μM, FIG. 15)?
Answer: The value was “dose-dependent effect and increase”.

Question: And the “ratio of p-AMPKα/AMPK-u vs control cells” value ([5]; 20 and […])?
Answer: The value was “above 10 fold”.

Question: What about the “increase over untreated controls in the cumulative distance covered” value (C57BL/6J mice; final two days) of the same molecule?
Answer: Its value is 29%.

Question: And the “increase over untreated controls in the cumulative distance covered” value (C57BL/6J mice; initial 3 days, FIG. 20)?
Answer: Its value is 25%.

Question: And the “increase in spontaneous voluntary running on a running wheel” value (C57BL/6J mice; 55 mg/kg/day, five-day period, FIG. 20)?
Answer: Its value is “at least 25%”.
